Key:
[1] = biological target: T1, MAO-B (Homo sapiens, UniProt P27338); test: biochemical; settings: for remaining activity at 10 µM: read-out: Residual Activity at 10 µM (%) MAO-B
T1 sequence (P27338 1-520): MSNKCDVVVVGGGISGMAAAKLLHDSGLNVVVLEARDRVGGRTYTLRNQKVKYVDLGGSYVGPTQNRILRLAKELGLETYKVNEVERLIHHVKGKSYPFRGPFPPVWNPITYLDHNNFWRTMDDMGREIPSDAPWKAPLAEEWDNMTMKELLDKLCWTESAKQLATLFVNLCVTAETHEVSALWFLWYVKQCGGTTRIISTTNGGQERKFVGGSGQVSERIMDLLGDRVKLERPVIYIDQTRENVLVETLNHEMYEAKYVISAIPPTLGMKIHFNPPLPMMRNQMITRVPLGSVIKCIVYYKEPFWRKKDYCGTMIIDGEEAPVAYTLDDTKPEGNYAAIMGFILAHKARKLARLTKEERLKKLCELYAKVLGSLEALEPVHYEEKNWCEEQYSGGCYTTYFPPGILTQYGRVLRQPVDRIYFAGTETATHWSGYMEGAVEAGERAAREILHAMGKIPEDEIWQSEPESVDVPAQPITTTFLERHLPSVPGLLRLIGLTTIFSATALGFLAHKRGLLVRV

[2] = biological target: T2, hMAO-A (Homo sapiens, UniProt P21397); test: Inhibition of recombinant hMAO-A, kynuramine substrate, continuous absorbance method; settings: for remaining activity at 10 µM: read-out: Residual Activity at 10 µM (%) MAO-A
T2 sequence (P21397 1-527): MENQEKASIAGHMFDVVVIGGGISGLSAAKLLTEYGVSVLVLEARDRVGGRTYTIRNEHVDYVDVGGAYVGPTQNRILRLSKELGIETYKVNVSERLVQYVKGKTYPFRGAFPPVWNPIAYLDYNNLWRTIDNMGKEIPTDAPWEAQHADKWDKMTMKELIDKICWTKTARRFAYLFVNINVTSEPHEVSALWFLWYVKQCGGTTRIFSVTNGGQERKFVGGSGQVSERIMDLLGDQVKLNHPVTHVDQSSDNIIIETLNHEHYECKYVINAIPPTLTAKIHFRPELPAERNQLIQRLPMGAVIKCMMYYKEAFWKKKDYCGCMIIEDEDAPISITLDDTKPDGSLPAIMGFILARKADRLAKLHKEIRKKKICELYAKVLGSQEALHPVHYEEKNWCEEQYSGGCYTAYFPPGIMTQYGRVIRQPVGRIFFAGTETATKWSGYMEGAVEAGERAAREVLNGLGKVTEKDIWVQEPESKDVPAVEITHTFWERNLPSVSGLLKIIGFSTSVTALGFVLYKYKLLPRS

[3] = biological target: T1, MAO-B; test: Reversibility of MAO-B inhibition by dialysis; format: biochemical; parameters: purchased Sigma-Aldrich
[4] = PAMPA for blood-brain barrier permeation; format: in vitro ADME
[5] = biological target: T1, MAO-B; test: MAO-B inhibition kinetics (Lineweaver-Burk and secondary plots); format: biochemical; parameters: purchased Sigma-Aldrich

**Q.** With `CCc1ccc(C=NNC(=O)Cn2nc(N3CCC(Cc4ccccc4)CC3)ccc2=O)cc1` [Compound S15, N′-4-ethylbenzylidene-2-(3-(4-benzylpiperidin-1-yl)-6-oxopyridazin-1(6H)-yl)acetohydrazide] as the compound, how does the IC50 [1] read?
**A.** Its IC50 is 5.34 ± 0.667 µM.

**Q.** And the remaining activity at 10 µM [1]?
**A.** The remaining activity at 10 µM was 54.4 ± 4.05%.

**Q.** And the IC50 [2]?
**A.** Its IC50 is 3.69 ± 0.655 µM.

**Q.** What about the remaining activity at 10 µM [2] of the same compound?
**A.** The remaining activity at 10 µM was 30.1 ± 8.1%.

**Q.** Which “Reversibility of MAO-B inhibition” value ([3]; dialysis, compared with safinamide and pargyline) does the source give for `N#Cc1ccccc1C=NNC(=O)Cn1nc(N2CCC(Cc3ccccc3)CC2)ccc1=O` [Compound S16, N′-2-cyanobenzylidene-2-(3-(4-benzylpiperidin-1-yl)-6-oxopyridazin-1(6H)-yl)acetohydrazide] here?
**A.** The value was “reversible”.

**Q.** And the “Experimental Pe” value ([4]; PAMPA-BBB, pH 7.4)?
**A.** The value was 3.78 ×10⁻⁶ cm/s.

**Q.** And the Papp ([4]; PAMPA-BBB, pH 7.4, read-out: Experimental Pe)?
**A.** The Papp was 3.78 ± 0.2 ×10⁻⁶ cm/s.

**Q.** What about the IC50 [1] of the same compound?
**A.** The IC50 was 0.979 ± 0.206 µM.

**Q.** And the remaining activity at 10 µM [1]?
**A.** Its remaining activity at 10 µM is -12.9 ± 1.14%.

**Q.** What about the “Type of MAO-B inhibition” value ([5]; LB plots, five substrate and three inhibitor concentrations) of the same compound?
**A.** The value was “competitive”.

**Q.** And the Ki ([5]; secondary plot of LB slopes, benzylamine substrate)?
**A.** The Ki was 0.721 ± 0.074 µM.

**Q.** What about the IC50 [2] of the same compound?
**A.** The IC50 was 6.15 ± 0.305 µM.

**Q.** And the remaining activity at 10 µM [2]?
**A.** Its remaining activity at 10 µM is 33.2 ± 9.25%.

**Q.** Which IC50 [1] does the source give for `N#Cc1cccc(C=NNC(=O)Cn2nc(N3CCC(Cc4ccccc4)CC3)ccc2=O)c1` [Compound S17, N′-3-cyanobenzylidene-2-(3-(4-benzylpiperidin-1-yl)-6-oxopyridazin-1(6H)-yl)acetohydrazide] here?
**A.** Its IC50 is 3.1 ± 0.088 µM.

**Q.** And the remaining activity at 10 µM [1]?
**A.** Its remaining activity at 10 µM is 0%.

**Q.** And the IC50 [2]?
**A.** Its IC50 is 6.28 ± 0.306 µM.

**Q.** And the remaining activity at 10 µM [2]?
**A.** The remaining activity at 10 µM was 9.98 ± 0.57%.

**Q.** With `N#Cc1ccc(C=NNC(=O)Cn2nc(N3CCC(Cc4ccccc4)CC3)ccc2=O)cc1` [Compound S18, N′-4-cyanobenzylidene-2-(3-(4-benzylpiperidin-1-yl)-6-oxopyridazin-1(6H)-yl)acetohydrazide] as the compound, how does the IC50 [1] read?
**A.** The IC50 was 3.51 ± 0.811 µM.

**Q.** What about the remaining activity at 10 µM [1] of the same compound?
**A.** Its remaining activity at 10 µM is 48.37 ± 0.08%.

**Q.** And the IC50 [2]?
**A.** Its IC50 is 7.19 ± 0.201 µM.

**Q.** And the remaining activity at 10 µM [2]?
**A.** Its remaining activity at 10 µM is 35.9 ± 2.54%.

**Q.** Which results are given for `COc1ccccc1C=NNC(=O)Cn1nc(N2CCC(Cc3ccccc3)CC2)ccc1=O` [Compound S19, N′-2-methoxybenzylidene-2-(3-(4-benzylpiperidin-1-yl)-6-oxopyridazin-1(6H)-yl)acetohydrazide]?
**A.** remaining activity at 10 µM [1]: 20.8 ± 1.76%; IC50 [2]: 4.66 ± 0.307 µM; remaining activity at 10 µM [2]: 7.83 ± 2.05%

**Q.** What does the source list for `COc1cc(C=NNC(=O)Cn2nc(N3CCC(Cc4ccccc4)CC3)ccc2=O)cc(OC)c1` [Compound S20, N′-3,5-dimethoxybenzylidene-2-(3-(4-benzylpiperidin-1-yl)-6-oxopyridazin-1(6H)-yl)acetohydrazide]?
**A.** IC50 [1]: 3.63 ± 0.142 µM; remaining activity at 10 µM [1]: 11.7 ± 2.41%; IC50 [2]: 19 ± 2.71 µM; remaining activity at 10 µM [2]: 68 ± 4.21%

**Q.** Which IC50 [1] does the source give for `COc1cc(OC)c(C=NNC(=O)Cn2nc(N3CCC(Cc4ccccc4)CC3)ccc2=O)c(OC)c1` [Compound S21, N′-2,4,6-trimethoxybenzylidene-2-(3-(4-benzylpiperidin-1-yl)-6-oxopyridazin-1(6H)-yl)acetohydrazide] here?
**A.** Its IC50 is 6.12 ± 0.662 µM.

**Q.** And the remaining activity at 10 µM [1]?
**A.** The remaining activity at 10 µM was 48.5 ± 6.43%.

**Q.** What about the IC50 [2] of the same compound?
**A.** The IC50 was 7.47 ± 0.344 µM.

**Q.** What about the remaining activity at 10 µM [2] of the same compound?
**A.** The remaining activity at 10 µM was 32.8 ± 2.18%.

**Q.** For `COc1cccc(C=NNC(=O)Cn2nc(N3CCC(Cc4ccccc4)CC3)ccc2=O)c1OC` [Compound S22, N′-2,3-dimethoxybenzylidene-2-(3-(4-benzylpiperidin-1-yl)-6-oxopyridazin-1(6H)-yl)acetohydrazide], which IC50 [1] is on record?
**A.** Its IC50 is 7.87 ± 0.208 µM.

**Q.** What about the remaining activity at 10 µM [1] of the same compound?
**A.** Its remaining activity at 10 µM is 39 ± 2.83%.

**Q.** And the IC50 [2]?
**A.** The IC50 was 5.94 ± 0.264 µM.

**Q.** And the remaining activity at 10 µM [2]?
**A.** Its remaining activity at 10 µM is -8.5 ± 2.12%.

**Q.** What does the source list for `COc1cc(C=NNC(=O)Cn2nc(N3CCC(Cc4ccccc4)CC3)ccc2=O)cc(OC)c1OC` [Compound S23, N′-3,4,5-trimethoxybenzylidene-2-(3-(4-benzylpiperidin-1-yl)-6-oxopyridazin-1(6H)-yl)acetohydrazide]?
**A.** IC50 [1]: 10.9 ± 0.405 µM; remaining activity at 10 µM [1]: 53.1 ± 2.67%; IC50 [2]: 28.4 ± 2.95 µM; remaining activity at 10 µM [2]: 78.79 ± 0.3%

**Q.** For `COc1ccc(C=NNC(=O)Cn2nc(N3CCC(Cc4ccccc4)CC3)ccc2=O)c(OC)c1` [Compound S24, N′-2,4-dimethoxybenzylidene-2-(3-(4-benzylpiperidin-1-yl)-6-oxopyridazin-1(6H)-yl)acetohydrazide], which IC50 [1] is on record?
**A.** Its IC50 is 10.7 ± 2.48 µM.

**Q.** And the remaining activity at 10 µM [1]?
**A.** Its remaining activity at 10 µM is 54.7 ± 3.76%.

**Q.** What about the IC50 [2] of the same compound?
**A.** Its IC50 is 4.13 ± 0.107 µM.

**Q.** What about the remaining activity at 10 µM [2] of the same compound?
**A.** Its remaining activity at 10 µM is 20.7 ± 1.34%.

**Q.** Which remaining activity at 10 µM [2] does the source give for `C#CCN(C)Cc1ccccc1` [Pargyline, reference compound] here?
**A.** Its remaining activity at 10 µM is 19.9 ± 6.82%.

**Q.** Which activity ([3]; about 2.0 times IC50 (S5 0.4 μM, S16 2.0 μM), 30 min pre-incubation, read-out: Residual MAO-B activity before recovery, undialyzed (AU)) does the source give for `C[C@H](NCc1ccc(OCc2cccc(F)c2)cc1)C(N)=O` [Safinamide, reference compound] here?
**A.** Its activity is 28.3%.

**Q.** And the remaining activity at 10 µM [1]?
**A.** Its remaining activity at 10 µM is -15.6 ± 0.86%.

**Q.** What about the remaining activity at 10 µM [2] of the same compound?
**A.** Its remaining activity at 10 µM is 69 ± 1.36%.

**Q.** With `C#CCN(C)[C@H](C)Cc1ccccc1` [Selegiline, reference compound] as the compound, how does the “Prediction (BBB permeation class)” value ([4]; class from Pe) read?
**A.** The value was “CNS+ (Pe (10^−6 cm·s^−1) > 4.00: CNS+ (high permeation))”.
